Source: ChEMBL document CHEMBL1154043, “Synthesis and structure-activity relationship of a novel series of heterocyclic sulfonamide gamma-secretase inhibitors” (Bioorg Med Chem, 2009)
Active and inactive are the calls of the source. No cut-off for these calls is given here.

How the values were obtained:
[1] = tested on: CHO; test: Inhibition of gamma-secretase-mediated cleavage of human APP expressed in CHO cells assessed as reduction in amyloid beta42 production after 24 hrs by double sandwich ELISA; format: cell-based
[2] = Inhibition of gamma-secretase-mediated mouse notch cleavage expressed in CHOK1 cells assessed as secreted alkaline phosphatase level after 48 hrs by chemiluminescence assay; format: cell-based; details: CHO-K1, 48 h
[3] = Inhibition of gamma-secretase-mediated cleavage of human APP expressed in CHO cells assessed as reduction in amyloid beta40 production after 24 hrs by double sandwich ELISA; format: cell-based
[4] = Inhibition of gamma-secretase assessed as increase in beta-C-terminal fragment level after 24 hrs by double sandwich ELISA
[5] = Selectivity ratio of EC50 for gamma-secretase-mediated mouse notch cleavage to EC50 for gamma-secretase-mediated amyloid beta40 production
[6] = Inhibition of gamma-secretase assessed as effect on APP level after 24 hrs by double sandwich ELISA
[7] = molecular target: Gamma-secretase (Homo sapiens) (UniProt Q96BI3+Q9NZ42+Q8WW43+P49768+Q92542+P49810); test: Displacement of [3H](S)-5-chloro-N-(3-ethyl-1-hydroxypentan-2-yl)thiophene-2-sulfonamide from gamma secretase in human SH-SY5Y cells after 1 hr; format: cell-based

| Structure (SMILES) | EC50 [2] [nM] | EC50 [3] [nM] | Activity [4] | Selectivity ratio [5] | Activity [6] | Activity [7] | Activity [1] |
| --- | --- | --- | --- | --- | --- | --- | --- |
| COc1ccc(-n2nccc2[C@@H](NS(=O)(=O)c2ccc(Cl)s2)C(C)C)cc1 | 6120 | 550 | Active | 11 | Active | – | Active |
| CC(C)C(NS(=O)(=O)c1ccc(Cl)s1)c1ccnn1-c1ccc(F)cc1 (configuration not stated) | – | 2760 | Active | – | Active | – | Active |
| C[C@H](NC(=O)[C@@H](O)c1cc(F)cc(F)c1)C(=O)N[C@@H]1C(=O)N(C)c2ccccc2-c2ccccc21 | – | – | – | – | – | Active | – |
| CC(C)[C@H](NS(=O)(=O)c1ccc(Cl)s1)c1ccnn1-c1ccc(F)cc1 | – | 1010 | Active | – | Active | – | Active |
| CCC(CC)C(NS(=O)(=O)c1cc(Cl)c(Cl)s1)c1ccnn1-c1ccccc1 (configuration not stated) | – | 13400 | Active | – | Active | – | Active |
| C[C@H](NC(=O)Cc1cc(F)cc(F)c1)C(=O)N[C@H](C(=O)OC(C)(C)C)c1ccccc1 | – | – | – | – | – | Active | – |
| Cc1ccc(-n2nccc2C(NS(=O)(=O)c2ccc(Cl)s2)C(C)C)cc1 (configuration not stated) | – | 420 | Active | – | Active | – | Active |
| Cc1ccc(-n2nccc2[C@@H](NS(=O)(=O)c2ccc(Cl)s2)C(C)C)cc1 | 12600 | 320 | Active | 39 | Active | – | Active |
| CCC(CC)C(NS(=O)(=O)c1ccc(Br)s1)c1ccnn1-c1ccccc1 (configuration not stated) | – | 1530 | Active | – | Active | – | Active |
| CCC(CC)C(NC(=O)c1ccc(Cl)cc1)c1ccnn1Cc1ccc(OC)cc1 (configuration not stated) | – | 42400 | Active | – | Active | – | Active |
| CCC(CC)C(c1ccnn1-c1ccccc1)N(C)S(=O)(=O)c1ccc(Br)s1 (configuration not stated) | – | 65100 | Active | – | Active | – | Active |
| CCC(CC)C(c1ccnn1-c1ccccc1)N(C)S(=O)(=O)c1ccc(Cl)s1 (configuration not stated) | – | 70200 | Active | – | Active | – | Active |
| Cc1cccc(-n2nccc2C(NS(=O)(=O)c2ccc(Cl)s2)C(C)C)c1 (configuration not stated) | – | 2530 | Active | – | Active | – | Active |
| CCC(CC)C(NS(=O)(=O)c1ccc(Cl)c(Cl)c1)c1ccnn1-c1ccccc1 (configuration not stated) | – | 25500 | Active | – | Active | – | Active |
| Cc1ccc(-n2nccc2[C@H](NS(=O)(=O)c2ccc(Cl)s2)C(C)C)cc1 | – | > 15000 | Active | – | Active | – | Active |
| CC(C)C(NS(=O)(=O)c1ccc(Cl)s1)c1ccnn1-c1ccccc1 (configuration not stated) | – | 1120 | Active | – | Active | – | Active |
| CCC(CC)C(NS(=O)(=O)c1ccc(Cl)s1)c1ccn[nH]1 (configuration not stated) | – | 19500 | Active | – | Active | – | Active |
| CCC(CC)C(NS(=O)(=O)c1ccc(C#N)cc1)c1ccnn1-c1ccccc1 (configuration not stated) | – | 85200 | Active | – | Active | – | Active |
| CCC(CC)C(NS(=O)(=O)c1ccc(Cl)cc1)c1ccnn1-c1ccccc1 (configuration not stated) | – | 23000 | Active | – | Active | – | Active |
| Cc1ccc(Cn2ncnc2C(NS(=O)(=O)c2ccc(Cl)s2)C(C)C)cc1 (configuration not stated) | – | 2890 | Active | – | Active | – | Active |
| CC(C)[C@H](O)C(=O)N[C@@H](C)C(=O)N[C@@H]1C(=O)N(C)CCc2ccccc21 | – | – | – | – | – | Active | – |
| COc1ccc(Cn2cccc2C(NS(=O)(=O)c2ccc(Cl)s2)C(C)C)cc1 (configuration not stated) | – | 13300 | Active | – | Active | – | Active |
| CC(C)C(NS(=O)(=O)c1ccc(Cl)s1)c1ncnn1Cc1ccccc1 (configuration not stated) | – | 3360 | Active | – | Active | – | Active |

Further lines, with some results ahead:

| EC50 [2] [nM] | EC50 [3] [nM] | Activity [4] | Selectivity ratio [5] | Activity [6] | Activity [7] | Structure (SMILES) | Activity [1] |
| --- | --- | --- | --- | --- | --- | --- | --- |
| – | 1560 | Active | – | Active | – | CCC(CC)C(NS(=O)(=O)c1ccc(Cl)s1)c1ccnn1-c1ccc(OC)cc1 (configuration not stated) | Active |
| 3970 | 990 | Active | 4 | Active | – | CCC(CC)[C@H](NS(=O)(=O)c1ccc(Cl)s1)c1ccnn1-c1ccc(OC)cc1 | Active |
| – | 480 | Active | – | Active | – | CCC(CC)C(NS(=O)(=O)c1ccc(Cl)s1)c1ncnn1Cc1ccc(F)cc1 (configuration not stated) | Active |
| – | 19400 | Active | – | Active | – | CCC(CC)C(NS(=O)(=O)c1ccc(Cl)s1)c1nccn1Cc1ccccc1 (configuration not stated) | Active |
| – | 1000 | Active | – | Active | – | CCCCn1nccc1C(NS(=O)(=O)c1ccc(Cl)s1)C(CC)CC (configuration not stated) | Active |
| – | 50600 | Active | – | Active | – | CCC(CC)C(NS(=O)(=O)c1ccc(Cl)s1)c1nccn1Cc1ccc(OC)cc1 (configuration not stated) | Active |
| 2650 | 110 | Active | 24 | Active | – | CCC(CC)[C@H](NS(=O)(=O)c1ccc(Cl)s1)c1ccnn1Cc1ccc(OC)cc1 | Active |
| – | 1010 | Active | – | Active | – | CCC(CC)C(NS(=O)(=O)c1ccc(Cl)s1)c1ncnn1Cc1ccccc1 (configuration not stated) | Active |
| – | 1680 | Active | – | Active | – | CCC(CC)C(NS(=O)(=O)c1ccc(Cl)s1)c1ccnn1S(=O)(=O)c1ccc(C)cc1 (configuration not stated) | Active |
| 3260 | 470 | Active | 6.9 | Active | – | CC(C)[C@H](NS(=O)(=O)c1ccc(Cl)s1)c1ccnn1-c1ccc(O)cc1 | Active |
| – | 2190 | Active | – | Active | – | CCC(CC)C(NS(=O)(=O)c1ccc(Cl)s1)c1ccnn1-c1ccc(C(F)(F)F)cc1 (configuration not stated) | Active |
| – | 130 | Active | – | Active | – | CCC(CC)C(NS(=O)(=O)c1ccc(Cl)s1)c1ccnn1Cc1ccc(OC)cc1 (configuration not stated) | Active |
| – | 8500 | Active | – | Active | – | CCC(CC)[C@@H](NS(=O)(=O)c1ccc(Cl)s1)c1ccnn1Cc1ccc(O)cc1 | Active |
| – | 990 | Active | – | Active | – | CCC(CC)C(NS(=O)(=O)c1ccc(Cl)s1)c1ncnn1Cc1ccc(OC(F)(F)F)cc1 (configuration not stated) | Active |
| – | 630 | Active | – | Active | – | CCC(CC)C(NS(=O)(=O)c1ccc(Cl)s1)c1ccnn1-c1ccc(O)cc1 (configuration not stated) | Active |
| – | 940 | Active | – | Active | – | CCC(CC)C(NS(=O)(=O)c1ccc(Cl)s1)c1ncnn1Cc1ccc(OC)cc1 (configuration not stated) | Active |
| – | 2270 | Active | – | Active | – | CCC(CC)C(NS(=O)(=O)c1ccc(Br)cc1)c1ccnn1Cc1ccc(OC)cc1 (configuration not stated) | Active |
| – | 1200 | Active | – | Active | – | COc1ccc(Cn2nccc2C(C)NS(=O)(=O)c2ccc(Cl)s2)cc1 (configuration not stated) | Active |
| – | 1980 | Active | – | Active | – | CCC(CC)C(NS(=O)(=O)c1ccc(Cl)cc1)c1ccnn1Cc1ccc(OC)cc1 (configuration not stated) | Active |
| – | 140 | Active | – | Active | – | CCC(CC)C(NS(=O)(=O)c1ccc(Cl)s1)c1ccnn1Cc1ccc(O)cc1 (configuration not stated) | Active |
| – | > 15000 | Active | – | Active | – | CCC(CC)[C@@H](NS(=O)(=O)c1ccc(Cl)s1)c1ccnn1Cc1ccc(OC)cc1 | Active |
| – | > 15000 | Active | – | Active | – | CC(C)[C@@H](NS(=O)(=O)c1ccc(Cl)s1)c1ccnn1-c1ccc(F)cc1 | Active |
| – | 880 | Active | – | Active | – | CCC(CC)C(NS(=O)(=O)c1ccc(Cl)s1)c1ncnn1Cc1ccc(C)cc1 (configuration not stated) | Active |
| – | 410 | Active | – | Active | – | COc1ccc(Cn2nccc2C(NS(=O)(=O)c2ccc(Cl)s2)C(C)C)cc1 (configuration not stated) | Active |
| – | 1620 | Active | – | Active | – | CCC(CC)C(NS(=O)(=O)c1ccc(Cl)s1)c1ccnn1-c1ccccc1 (configuration not stated) | Active |
| – | 930 | Active | – | Active | – | CCCC(NS(=O)(=O)c1ccc(Cl)s1)c1ccnn1Cc1ccc(OC)cc1 (configuration not stated) | Active |
